Columns and labels:
Settings in all cases: membranes from stably transfected CHO cells, 3H-QNB 100-200 pM, 25° C., 90 minutes
[1] = molecular target: T1, cloned human M1 muscarinic receptor (Homo sapiens, UniProt P11229); assay: Muscarinic binding activity, 3H-QNB displacement, M1
T1 sequence (P11229 1-460): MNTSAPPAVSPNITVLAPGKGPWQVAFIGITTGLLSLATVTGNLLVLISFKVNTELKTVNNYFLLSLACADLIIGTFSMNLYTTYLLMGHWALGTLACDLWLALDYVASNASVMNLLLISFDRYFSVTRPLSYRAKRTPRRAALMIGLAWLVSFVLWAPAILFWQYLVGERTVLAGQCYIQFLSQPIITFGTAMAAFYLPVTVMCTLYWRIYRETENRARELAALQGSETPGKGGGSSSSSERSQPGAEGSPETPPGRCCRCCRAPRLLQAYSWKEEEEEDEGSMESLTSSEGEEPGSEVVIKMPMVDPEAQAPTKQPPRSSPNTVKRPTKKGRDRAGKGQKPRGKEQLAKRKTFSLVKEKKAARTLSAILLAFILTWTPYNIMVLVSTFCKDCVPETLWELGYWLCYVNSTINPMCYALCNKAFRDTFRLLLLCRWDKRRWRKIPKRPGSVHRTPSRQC

[2] = molecular target: T2, cloned human M2 muscarinic receptor (Homo sapiens, UniProt P08172); assay: Muscarinic binding activity, 3H-QNB displacement, M2
T2 sequence (P08172 1-466): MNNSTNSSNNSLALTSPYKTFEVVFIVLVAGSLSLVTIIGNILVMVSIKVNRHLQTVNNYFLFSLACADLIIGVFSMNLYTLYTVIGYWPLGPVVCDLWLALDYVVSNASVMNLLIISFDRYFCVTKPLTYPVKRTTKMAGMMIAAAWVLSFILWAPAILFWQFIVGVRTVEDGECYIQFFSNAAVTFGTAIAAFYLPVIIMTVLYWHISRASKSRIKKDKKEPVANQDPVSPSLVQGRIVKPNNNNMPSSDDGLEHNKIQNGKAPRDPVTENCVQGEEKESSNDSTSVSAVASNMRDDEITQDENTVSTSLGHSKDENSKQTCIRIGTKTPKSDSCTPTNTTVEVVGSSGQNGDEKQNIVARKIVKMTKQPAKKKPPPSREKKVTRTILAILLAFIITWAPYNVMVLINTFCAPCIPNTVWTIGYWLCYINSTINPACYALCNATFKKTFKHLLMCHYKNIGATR

[3] = molecular target: cloned human M3 muscarinic receptor (Homo sapiens, UniProt P20309); assay: Muscarinic binding activity, 3H-QNB displacement, M3
Chain of cloned human M3 muscarinic receptor (P20309 whole entry): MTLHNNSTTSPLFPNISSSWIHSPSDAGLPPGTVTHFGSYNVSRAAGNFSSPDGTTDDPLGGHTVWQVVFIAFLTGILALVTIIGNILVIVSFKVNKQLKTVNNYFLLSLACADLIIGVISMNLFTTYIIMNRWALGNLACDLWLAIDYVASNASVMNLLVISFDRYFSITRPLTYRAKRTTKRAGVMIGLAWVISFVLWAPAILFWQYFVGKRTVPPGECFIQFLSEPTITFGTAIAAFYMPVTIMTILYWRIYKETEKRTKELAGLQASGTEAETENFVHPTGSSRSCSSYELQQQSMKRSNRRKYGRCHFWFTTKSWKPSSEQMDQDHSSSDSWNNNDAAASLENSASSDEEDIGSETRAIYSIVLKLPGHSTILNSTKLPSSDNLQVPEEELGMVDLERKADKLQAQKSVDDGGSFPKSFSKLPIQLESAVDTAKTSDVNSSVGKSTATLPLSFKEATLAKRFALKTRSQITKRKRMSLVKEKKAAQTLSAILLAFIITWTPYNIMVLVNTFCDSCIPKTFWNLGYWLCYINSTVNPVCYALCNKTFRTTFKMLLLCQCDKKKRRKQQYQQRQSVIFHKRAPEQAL

[4] = molecular target: T3, cloned human M4 muscarinic receptor (Homo sapiens, UniProt P08173); assay: Muscarinic binding activity, 3H-QNB displacement, M4
T3 sequence (P08173 1-479): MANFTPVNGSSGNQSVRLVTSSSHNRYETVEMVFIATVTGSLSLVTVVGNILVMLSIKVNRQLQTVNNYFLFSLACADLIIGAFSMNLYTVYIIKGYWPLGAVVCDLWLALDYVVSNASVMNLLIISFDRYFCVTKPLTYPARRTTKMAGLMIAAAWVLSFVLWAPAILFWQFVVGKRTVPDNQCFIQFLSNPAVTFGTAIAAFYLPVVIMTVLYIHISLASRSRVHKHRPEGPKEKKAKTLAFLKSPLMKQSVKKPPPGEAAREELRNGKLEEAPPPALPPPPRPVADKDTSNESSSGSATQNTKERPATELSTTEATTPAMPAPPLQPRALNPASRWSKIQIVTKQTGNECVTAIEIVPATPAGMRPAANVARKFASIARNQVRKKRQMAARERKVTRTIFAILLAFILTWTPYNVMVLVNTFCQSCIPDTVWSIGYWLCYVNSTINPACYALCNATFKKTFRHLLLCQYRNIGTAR

[5] = molecular target: T4, cloned human M5 muscarinic receptor (Homo sapiens, UniProt P08912); assay: Muscarinic binding activity, 3H-QNB displacement, M5
T4 sequence (P08912 1-532): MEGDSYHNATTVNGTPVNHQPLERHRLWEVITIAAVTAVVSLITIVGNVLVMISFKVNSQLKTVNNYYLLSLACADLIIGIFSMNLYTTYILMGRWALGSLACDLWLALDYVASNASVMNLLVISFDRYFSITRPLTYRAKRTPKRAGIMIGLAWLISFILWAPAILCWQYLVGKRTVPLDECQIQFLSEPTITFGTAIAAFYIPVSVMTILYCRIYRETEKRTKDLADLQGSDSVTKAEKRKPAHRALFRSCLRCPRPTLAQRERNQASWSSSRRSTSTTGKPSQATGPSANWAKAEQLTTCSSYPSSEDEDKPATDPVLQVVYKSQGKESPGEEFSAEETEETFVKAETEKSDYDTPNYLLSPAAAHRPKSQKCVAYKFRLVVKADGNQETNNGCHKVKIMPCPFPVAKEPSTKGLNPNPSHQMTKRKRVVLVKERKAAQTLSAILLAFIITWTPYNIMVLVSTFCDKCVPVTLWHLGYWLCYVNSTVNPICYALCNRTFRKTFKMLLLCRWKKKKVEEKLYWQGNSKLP

Ki [1] [nM]	Ki [2] [nM]	Ki [3] [nM]	Ki [4] [nM]	Ki [5] [nM]	Structure (SMILES)
> 1200	1840	–	–	–	CC(C)Oc1ccc(C2C(Cl)(Cl)C23CCN(C2CCN(S(=O)(=O)c4cccc5ccccc45)CC2)CC3)cc1 (stereo not shown) [Compound 16]
> 1200	481	–	–	–	CCCS(=O)(=O)N1CCC(N2CCC3(CC2)C(c2ccc(OC(C)C)cc2)C3(Cl)Cl)CC1 (stereo not shown) [Compound 15]
819	607	> 1000	> 1000	> 1500	CC(C)Oc1ccc(C2CC23CCN(C2CCN(C(=O)c4cccc(Cl)c4Cl)CC2)CC3)cc1 (stereo not shown) [Compound 8]
> 996	> 1440	> 1000	> 1000	> 1500	CC(C)Oc1ccc(C2C(Cl)(Cl)C23CCN(C2CCN(C(=O)c4cccc(Cl)c4Cl)CC2)CC3)cc1 (stereo not shown) [Compound 3]
1010	149	> 1200	261	995	CC(C)Oc1ccc(C2(C)CC23CCN(C2CCN(C(=O)c4cccc(Cl)c4Cl)CC2)CC3)cc1 (stereo not shown) [Compound 10]
> 990	1200	> 1000	> 1000	42	CC(C)Oc1ccc(C2C(Cl)(Cl)C23CCN(C2CCN(C(=O)c4cccc(F)c4N)CC2)CC3)cc1 (stereo not shown) [Compound 6]
744	113	> 1200	272	1210	Cc1c(Cl)cccc1C(=O)N1CCC(N2CCC3(CC2)CC3(C)c2ccc(OC(C)C)cc2)CC1 (stereo not shown) [Compound 12]
> 1200	> 1900	–	–	–	CC(C)Oc1ccc(C2C(Cl)(Cl)C23CCN(C2CCN(C(=O)c4ccc(F)c5ccccc45)CC2)CC3)cc1 (stereo not shown) [Compound 13]

The next lines start with the molecule.

Structure (SMILES)	Ki [1] [nM]	Ki [2] [nM]	Ki [3] [nM]	Ki [4] [nM]	Ki [5] [nM]
CC(C)Oc1ccc(C2C(Cl)(Cl)C23CCN(C2CCN(C(=O)c4cccc(Cl)c4N)CC2)CC3)cc1 (stereo not shown) [Compound 5]	> 990	1390	> 1000	> 1000	786
CC(C)Oc1ccc(C2(C)CC23CCN(C2CCN(C(=O)c4cccc(Cl)c4N)CC2)CC3)cc1 (stereo not shown) [Compound 11]	600	49	691	151	619
Cc1cccc(C(=O)N2CCC(N3CCC4(CC3)C(c3ccc(OC(C)C)cc3)C4(Cl)Cl)CC2)c1Cl (stereo not shown) [Compound 1]	> 990	> 1400	> 1000	> 1000	891
Cc1c(Cl)cccc1C(=O)N1CCC(N2CCC3(CC2)CC3c2ccc(OC(C)C)cc2)CC1 (stereo not shown) [Compound 7]	> 900	> 1380	> 1000	> 1000	> 1500
Cc1c(Cl)cccc1C(=O)N1CCC(N2CCC3(CC2)C(c2ccc(OC(C)C)cc2)C3(Cl)Cl)CC1 (stereo not shown) [Compound 2]	982	> 1400	–	–	–
Cc1cccc(C)c1C(=O)N1CCC(N2CCC3(CC2)C(c2ccc(OC(C)C)cc2)C3(Cl)Cl)CC1 (stereo not shown) [Compound 17]	> 1200	> 1900	–	–	–
CC(C)Oc1ccc(C2C(Cl)(Cl)C23CCN(C2CCN(C(=O)c4cccc5c(Br)cccc45)CC2)CC3)cc1 (stereo not shown) [Compound 14]	> 1200	> 1900	–	–	–
Cc1cccc(C(=O)N2CCC(N3CCC4(CC3)C(c3ccc(OC(C)C)cc3)C4(Cl)Cl)CC2)c1N (stereo not shown) [Compound 4]	> 990	77	> 1000	> 1000	96
CC(C)Oc1ccc(C2CC23CCN(C2CCN(C(=O)c4cccc(Cl)c4N)CC2)CC3)cc1 (stereo not shown) [Compound 9]	> 900	490	> 1000	> 1000	> 1500
